Test results: patent US20100267561A1, “HERBICIDAL PYRIDAZINONE DERIVATIVES” (priority 2007, published 2010)

Columns and labels:
Test in all cases: Test E pre-/postemergence plant response
Type in all cases: in vivo
[1] = system: barnyardgrass (Echinochloa crus-galli)
Procedure, shortened: (§1)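 Seeds were planted and treated preemergence with compound formulated in a non-phytotoxic solvent mixture containing surfactant; postemergence sprays in the same formulation went onto plants 2 to 18 cm tall (1- to 4-leaf stage). After 14 to 21 days in a greenhouse, injury versus untreated controls was rated visually, 0 (no effect) to 100 (complete control).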

[2] = system: bermudagrass (Cynodon dactylon); conditions: scale 0 to 100
Procedure, shortened: as §1

[3] = system: black mustard (Brassica nigra); conditions: scale 0 to 100
Procedure, shortened: as §1

[4] = system: common chickweed (Stellaria media); conditions: Postemergence, scale 0 to 100
Procedure, shortened: as §1

[5] = system: common groundsel (Senecio vulgaris); conditions: scale 0 to 100
Procedure, shortened: as §1

[6] = system: common purslane (Portulaca oleracea); conditions: scale 0 to 100
Procedure, shortened: as §1

[7] = system: dallisgrass (Paspalum dilatatum); conditions: scale 0 to 100
Procedure, shortened: as §1

[8] = system: goosegrass (Eleusine indica); conditions: scale 0 to 100
Procedure, shortened: as §1

[9] = system: green foxtail (Setaria viridis); conditions: scale 0 to 100
Procedure, shortened: as §1

[10] = system: johnsongrass (Sorghum halepense); conditions: scale 0 to 100
Procedure, shortened: as §1

[11] = system: large crabgrass (Digitaria sanguinalis); conditions: scale 0 to 100
Procedure, shortened: as §1

[12] = system: quackgrass (Elytrigia repens); conditions: scale 0 to 100
Procedure, shortened: as §1

[13] = system: southern (S.) sandbur (Cenchrus echinatus); conditions: scale 0 to 100
Procedure, shortened: as §1

[14] = system: surinam grass (Brachiaria decumbens); conditions: scale 0 to 100
Procedure, shortened: as §1

CCc1cc(-c2ccc(C(F)(F)F)cc2)nn1-c1c(O)cnn(C)c1=O [Compound 11, 4-[5-ethyl-3-[4-(trifluoromethyl)phenyl]-1H-pyrazol-1-yl]-5-hydroxy-2-methyl-3(2H)-pyridazinone]
Plant response rating, Barnyardgrass ([1]; 4 g ai/ha, Postemergence, scale 0 to 100): 90 | Plant response rating, Barnyardgrass ([1]; 8 g ai/ha, Preemergence, scale 0 to 100): 75 | Plant response rating, Barnyardgrass ([1]; 16 g ai/ha, Preemergence, scale 0 to 100): 90 | Plant response rating, Barnyardgrass ([1]; 31 g ai/ha, Preemergence, scale 0 to 100): 98 | Plant response rating, Barnyardgrass ([1]; Postemergence, 8 g ai/ha, scale 0 to 100): 100 | Plant response rating, Barnyardgrass ([1]; Postemergence, 16 g ai/ha, scale 0 to 100): 100 | Plant response rating, Barnyardgrass ([1]; Postemergence, 31 g ai/ha, scale 0 to 100): 100 | Plant response rating, Barnyardgrass ([1]; Preemergence, 4 g ai/ha, scale 0 to 100, 0 no effect, 100 complete control): 0 | Plant response rating, Bermudagrass ([2]; 4 g ai/ha, Postemergence): 10 | Plant response rating, Bermudagrass ([2]; 8 g ai/ha, Preemergence): 25 | Plant response rating, Bermudagrass ([2]; 16 g ai/ha, Preemergence): 40 | Plant response rating, Bermudagrass ([2]; 31 g ai/ha, Preemergence): 100 | Plant response rating, Bermudagrass ([2]; Postemergence, 8 g ai/ha): 35 | Plant response rating, Bermudagrass ([2]; Postemergence, 16 g ai/ha): 80 | Plant response rating, Bermudagrass ([2]; Postemergence, 31 g ai/ha): 95 | Plant response rating, Bermudagrass ([2]; Preemergence, 4 g ai/ha): 15 | Plant response rating, Mustard, Black ([3]; 4 g ai/ha, Postemergence): 0 | Plant response rating, Mustard, Black ([3]; 8 g ai/ha, Preemergence): 0 | Plant response rating, Mustard, Black ([3]; 16 g ai/ha, Preemergence): 0 | Plant response rating, Mustard, Black ([3]; 31 g ai/ha, Preemergence): 0 | Plant response rating, Mustard, Black ([3]; Postemergence, 8 g ai/ha): 0 | Plant response rating, Mustard, Black ([3]; Postemergence, 16 g ai/ha): 0 | Plant response rating, Mustard, Black ([3]; Postemergence, 31 g ai/ha): 0 | Plant response rating, Mustard, Black ([3]; Preemergence, 4 g ai/ha): 0 | Plant response rating, Chickweed ([4]; 4 g ai/ha): 0 | Plant response rating, Chickweed ([4]; 8 g ai/ha): 0 | Plant response rating, Chickweed ([4]; 16 g ai/ha): 0 | Plant response rating, Chickweed ([4]; 31 g ai/ha): 0 | Plant response rating, Groundsel ([5]; 4 g ai/ha, Postemergence): 0 | Plant response rating, Groundsel ([5]; 16 g ai/ha, Preemergence): 0 | Plant response rating, Groundsel ([5]; 31 g ai/ha, Preemergence): 0 | Plant response rating, Groundsel ([5]; Postemergence, 8 g ai/ha): 0 | Plant response rating, Groundsel ([5]; Postemergence, 16 g ai/ha): 0 | Plant response rating, Groundsel ([5]; Postemergence, 31 g ai/ha): 0 | Plant response rating, Groundsel ([5]; Preemergence, 4 g ai/ha): 0 | Plant response rating, Purslane ([6]; 4 g ai/ha, Postemergence): 0 | Plant response rating, Purslane ([6]; 16 g ai/ha, Preemergence): 0 | Plant response rating, Purslane ([6]; 31 g ai/ha, Preemergence): 0 | Plant response rating, Purslane ([6]; Postemergence, 8 g ai/ha): 0 | Plant response rating, Purslane ([6]; Postemergence, 16 g ai/ha): 0 | Plant response rating, Purslane ([6]; Postemergence, 31 g ai/ha): 0 | Plant response rating, Purslane ([6]; Preemergence, 4 g ai/ha): 0 | Plant response rating, Dallisgrass ([7]; 4 g ai/ha, Postemergence): 60 | Plant response rating, Dallisgrass ([7]; 8 g ai/ha, Preemergence): 20 | Plant response rating, Dallisgrass ([7]; 16 g ai/ha, Preemergence): 35 | Plant response rating, Dallisgrass ([7]; 31 g ai/ha, Preemergence): 85 | Plant response rating, Dallisgrass ([7]; Postemergence, 8 g ai/ha): 75 | Plant response rating, Dallisgrass ([7]; Postemergence, 16 g ai/ha): 90 | Plant response rating, Dallisgrass ([7]; Postemergence, 31 g ai/ha): 90 | Plant response rating, Dallisgrass ([7]; Preemergence, 4 g ai/ha): 10 | Plant response rating, Goosegrass ([8]; 4 g ai/ha, Postemergence): 10 | Plant response rating, Goosegrass ([8]; 8 g ai/ha, Preemergence): 25 | Plant response rating, Goosegrass ([8]; 16 g ai/ha, Preemergence): 50 | Plant response rating, Goosegrass ([8]; 31 g ai/ha, Preemergence): 90 | Plant response rating, Goosegrass ([8]; Postemergence, 8 g ai/ha): 35 | Plant response rating, Goosegrass ([8]; Postemergence, 16 g ai/ha): 80 | Plant response rating, Goosegrass ([8]; Postemergence, 31 g ai/ha): 85 | Plant response rating, Goosegrass ([8]; Preemergence, 4 g ai/ha): 25 | Plant response rating, Foxtail, Green ([9]; 4 g ai/ha, Postemergence): 60 | Plant response rating, Foxtail, Green ([9]; 8 g ai/ha, Preemergence): 50 | Plant response rating, Foxtail, Green ([9]; 16 g ai/ha, Preemergence): 98 | Plant response rating, Foxtail, Green ([9]; 31 g ai/ha, Preemergence): 98 | Plant response rating, Foxtail, Green ([9]; Postemergence, 8 g ai/ha): 90 | Plant response rating, Foxtail, Green ([9]; Postemergence, 16 g ai/ha): 98 | Plant response rating, Foxtail, Green ([9]; Postemergence, 31 g ai/ha): 100 | Plant response rating, Foxtail, Green ([9]; Preemergence, 4 g ai/ha): 0 | Plant response rating, Johnsongrass ([10]; 4 g ai/ha, Postemergence): 95 | Plant response rating, Johnsongrass ([10]; 16 g ai/ha, Preemergence): 90 | Plant response rating, Johnsongrass ([10]; 31 g ai/ha, Preemergence): 95 | Plant response rating, Johnsongrass ([10]; Postemergence, 8 g ai/ha): 100 | Plant response rating, Johnsongrass ([10]; Postemergence, 16 g ai/ha): 100 | Plant response rating, Johnsongrass ([10]; Postemergence, 31 g ai/ha): 100 | Plant response rating, Johnsongrass ([10]; Preemergence, 4 g ai/ha): 75 | Plant response rating, Crabgrass, Large ([11]; 4 g ai/ha, Postemergence): 60 | Plant response rating, Crabgrass, Large ([11]; 8 g ai/ha, Preemergence): 0 | Plant response rating, Crabgrass, Large ([11]; 16 g ai/ha, Preemergence): 30 | Plant response rating, Crabgrass, Large ([11]; 31 g ai/ha, Preemergence): 100 | Plant response rating, Crabgrass, Large ([11]; Postemergence, 8 g ai/ha): 70 | Plant response rating, Crabgrass, Large ([11]; Postemergence, 16 g ai/ha): 95 | Plant response rating, Crabgrass, Large ([11]; Postemergence, 31 g ai/ha): 100 | Plant response rating, Crabgrass, Large ([11]; Preemergence, 4 g ai/ha): 0 | Plant response rating, Quackgrass ([12]; 4 g ai/ha, Postemergence): 40 | Plant response rating, Quackgrass ([12]; 16 g ai/ha, Preemergence): 60 | Plant response rating, Quackgrass ([12]; 31 g ai/ha, Preemergence): 75 | Plant response rating, Quackgrass ([12]; Postemergence, 8 g ai/ha): 65 | Plant response rating, Quackgrass ([12]; Postemergence, 16 g ai/ha): 90 | Plant response rating, Quackgrass ([12]; Postemergence, 31 g ai/ha): 95 | Plant response rating, Quackgrass ([12]; Preemergence, 4 g ai/ha): 0 | Plant response rating, Sandbur, S. ([13]; 4 g ai/ha, Postemergence): 90 | Plant response rating, Sandbur, S. ([13]; 16 g ai/ha, Preemergence): 90 | Plant response rating, Sandbur, S. ([13]; 31 g ai/ha, Preemergence): 95 | Plant response rating, Sandbur, S. ([13]; Postemergence, 8 g ai/ha): 95 | Plant response rating, Sandbur, S. ([13]; Postemergence, 16 g ai/ha): 100 | Plant response rating, Sandbur, S. ([13]; Postemergence, 31 g ai/ha): 100 | Plant response rating, Sandbur, S. ([13]; Preemergence, 4 g ai/ha): 0 | Plant response rating, Surinam Grass ([14]; 4 g ai/ha, Postemergence): 25 | Plant response rating, Surinam Grass ([14]; 16 g ai/ha, Preemergence): 95 | Plant response rating, Surinam Grass ([14]; 31 g ai/ha, Preemergence): 95 | Plant response rating, Surinam Grass ([14]; Postemergence, 8 g ai/ha): 80 | Plant response rating, Surinam Grass ([14]; Postemergence, 16 g ai/ha): 100 | Plant response rating, Surinam Grass ([14]; Postemergence, 31 g ai/ha): 100 | Plant response rating, Surinam Grass ([14]; Preemergence, 4 g ai/ha): 0
